The values that follow come from patent EP0260127A2, “Xanthine derivatives, their preparation and pharmaceutical compositions containing them” (BEECHAM - WUELFING GmbH & Co. KG, priority 1986, dated 1988).

Marks after values point to notes of the source that are not given here.

For assay [1], the system named is Mongolian gerbils. In words: Gerbil ischaemic deficit passive avoidance test (recall latency following transient forebrain ischaemia). It is filed as in vivo. Conditions: 3mg/kg p.o., seven administrations; gerbils after 5min bilateral carotid artery ligation; ischaemic controls 14, sham-ligated controls 33. How it is done: 2. The Gerbil Ischaemic Deficit Passive Avoidance Test.
Mongolian gerbils were conditioned to avoid entering a dark compartment by means of a footshock (maximally 50V, 2s duration) received when entering from the light section of a two compartment box. Recollection of the footshock was examined 24h later by replacing the gerbils in the two compartment box and measuring the recall latency, the time taken to re-enter the dark compartment.
Effect of test compound on recall latency in the gerbil following transient forebrain ischaemia.
A learning or memory deficit was induced in the gerbils by a transient (5min) bilateral carotid artery ligation, performed 24h prior to conditioning, under light hexobarbital anaesthesia.
Compounds, being examined for an effect on learning or memory in gerbils which had undergone carotid occlusion, were administered seven times during the experiment. The initial administration was during the period of forebrain ischaemia, the third and seventh administrations were 10min prior to conditioning and recall testing, respectively, and the remainder were given at intermediate time points.
A long recall latency indicates good information acquisition or retrival.

Assay [2] relates to rat ischaemic gastrocnemius muscle. The assay is described as follows: Effect on oxygen tension (pO2) of rat ischaemic gastrocnemius muscle. Conditions: ischaemic hindlimb, femoral artery ligated 2-4 days previously. It is filed as in vivo.
The target of assay [3] is cyclic AMP phosphodiesterase. In words: Inhibition of cyclic AMP phosphodiesterase (Dixon plot). In kind it is biochemical. Conditions: homogenates of rat skeletal muscle; 0.31 µM cyclic AMP as substrate; estimated from Dixon plot; read-out: Apparent Ki value. How it is done: 4. Inhibition of cyclic AMP phosphodiesterase.
The activity of cyclic AMP phosphodiesterase in homogenates of rat skeletal muscle was measured in the presence of various concentrations of compounds of formula (I) using 0.31 µM cyclic AMP as substrate. The reciprocal of the reaction rate was plotted on the y axis against the concentration of each compound on the x axis (Dixon plot). The apparent Ki value was estimated by extrapolating the steeper linear portion of the Dixon plot to the x axis and obtaining the negative intercept on the x axis.

As to `CCCCn1c(=O)n(CCC(C)O)c(=O)c2c1ncn2CC(C)O` (centres unmarked) [Example E5, 1-(3-Hydroxybutyl)-3-n-butyl-7-(2-hydroxypropyl) xanthine], the “Percentage of animals with recall latencies >60s” value in assay [1] is given as 32*. The “CHANGE in pO2 (Torr) (mean ± SEM)” value in assay [2] (5.0 mg/kg i.v., n 4) is listed as 2.3 ± 1.6 Torr. Further, the Ki in assay [3] is 128 µM.
`CCCCn1c(=O)c2c(ncn2CC(C)O)n(CCC(C)O)c1=O` (centres unmarked) [Example E6, 1-n-Butyl-3-(3-hydroxybutyl)-7-(2-hydroxypropyl)xanthine]: the “Percentage of animals with recall latencies >60s” value in assay [1] was 33*. For the same molecule, the “CHANGE in pO2 (Torr) (mean ± SEM)” value in assay [2] (1.0 mg/kg i.v., n 8) worked out at 2.2 ± 0.6 Torr. Moreover, the Ki in assay [3] was 94 µM.
For `CCCCn1c(=O)n(CCC(C)O)c(=O)c2c1ncn2CC(C)=O` (centres unmarked) [Example E7, 1-(3-Hydroxybutyl)-3-n-butyl-7-(2-oxopropyl)xanthine], in assay [3], the Ki is 13 µM.
`CCCCn1c(=O)n(CCC(C)=O)c(=O)c2c1ncn2CC(C)O` (centres unmarked) [Example E8, 1-(3-Oxobutyl)-3-n-butyl-7-(2-hydroxypropyl) xanthine]: in assay [3], the Ki was 160 µM.
Still for that read-out and setting: the same measure for `CCCCn1c(=O)c2c(ncn2CC(C)=O)n(CCC(C)O)c1=O` (centres unmarked) [Example E9, 1-n-Butyl-3-(3-hydroxybutyl)-7-(2-oxopropyl)xanthine]: 13 µM; for `CC(=O)Cn1cnc2c1c(=O)n(CCC(C)O)c(=O)n2CCC(C)O` (centres unmarked) [Example E11, 1,3-bis-(3-Hydroxybutyl)-7-(2-oxopropyl)xanthine]: 81 µM; for `CC(O)CCn1c(=O)c2c(ncn2CC(C)O)n(CCC(C)O)c1=O` (centres unmarked) [Example E14, 1,3-bis-(3-Hydroxybutyl)-7-(2-hydroxypropyl)xanthine]: 815 µM.
